Data: US12533343B2, “Method for preparing (−)-cibenzoline succinate” (CELLTRION, INC., priority 2018, dated 2026)

Columns and labels:
Format in all cases: physicochemical
[1] = Hygroscopicity; settings: 25±1° C., 24 hours, 80±2% RH
Text: The hygroscopicity was to describe the water vapor uptake behavior of solid by mass changes.
The results of the hygroscopicity study shall be interpreted based on the criteria in Table 11 (ref. EUROPEAN PHARMACOPOEIA 9.0 volume 1 5.11. characters section in monographs).

[2] = Accelerated stability test; settings: for Assay by potentiometry (on dried basis) / Chiral purity by HPLC S-Isomer Content / Identification by IR / Loss on drying at 105° C. for 3 hours / Related substance by HPLC Single maximum unknown impurity / Related substance by HPLC Total impurity: 40±2° C., RH 75±5%
Text: (§1) <Packing details>—Primary packing: (−)-Cibenzoline succinic acid salt obtained by Example 4 shall be packed in transparent LDPE bag, twist and tie with Strip seal. • Secondary packing: The above bag shall be kept in Black color LDPE bag, twist and tie with Strip seal. • Tertiary packing: The above bag shall be kept Triple laminated aluminum bag with heat seal. Keep this bag in HDPE drum and close with lid.

[3] = Particle size analysis
Text: The powder sample was dispersed with a dispersion pressure of 2 bar.
The accompanying Table 9 (ref. 2019 USP 42 NF 37 Volume 4 physical tests <811> powder fineness) indicates particle size distribution associated with corresponding values.

[4] = Long-term storage stability test; settings: for Assay by potentiometry (on dried basis) / Chiral purity by HPLC S-Isomer Content / Identification by IR / Loss on drying at 105° C. for 3 hours / Related substance by HPLC Single maximum unknown impurity / Related substance by HPLC Total impurity: 25±2° C., RH 60±5%
Method: And related substances was measured by HPLC under below conditions.
as §1

[5] = powder dispersed at 2 bar, listed as (−)-Cibenzoline succinic acid salt

SMILES: O=C(O)CCC(=O)O.c1ccc(C2(c3ccccc3)C[C@@H]2C2=NCCN2)cc1 [Example 4, (−)-Cibenzoline succinic acid salt]
- Mass change [1]: 0.01%
- Hygroscopicity evaluation ([1]; Ph. Eur. criteria): Non hygroscopic
- Assay by potentiometry (on dried basis) ([2]; 1-month): 100.1 % w/w
- Chiral purity by HPLC S-Isomer Content ([2]; 1-month): 100.0 % Area normalization
- Identification by IR ([2]; 1-month): Complies
- Loss on drying at 105° C. for 3 hours ([2]; 1-month): 0.15 % w/w
- Related substance by HPLC Single maximum unknown impurity ([2]; 1-month): 0.01 % w/w
- Related substance by HPLC Total impurity ([2]; 1-month): 0.01 % w/w
- Assay by potentiometry (on dried basis) ([2]; 2-month): 100.3 % w/w
- Chiral purity by HPLC S-Isomer Content ([2]; 2-month): 100.0 % Area normalization
- Identification by IR ([2]; 2-month): Complies
- Loss on drying at 105° C. for 3 hours ([2]; 2-month): 0.12 % w/w
- Assay by potentiometry (on dried basis) ([2]; 3-month): 100.1 % w/w
- Chiral purity by HPLC S-Isomer Content ([2]; 3-month): 100.0 % Area normalization
- Identification by IR ([2]; 3-month): Complies
- Loss on drying at 105° C. for 3 hours ([2]; 3-month): 0.09 % w/w
- Assay by potentiometry (on dried basis) ([2]; 6-month): 99.6 % w/w
- Chiral purity by HPLC S-Isomer Content ([2]; 6-month): 100.0 % Area normalization
- Identification by IR ([2]; 6-month): Complies
- Loss on drying at 105° C. for 3 hours ([2]; 6-month): 0.10 % w/w
- Assay by potentiometry (on dried basis) ([2]; Initial): 100.1 % w/w
- Chiral purity by HPLC S-Isomer Content ([2]; Initial): 100.0 % Area normalization
- Identification by IR ([2]; Initial): Complies
- Loss on drying at 105° C. for 3 hours ([2]; Initial): 0.11 % w/w
- Related substance by HPLC Single maximum unknown impurity ([2]; Initial): 0.01 % w/w
- Related substance by HPLC Total impurity ([2]; Initial): 0.01 % w/w
- stability conclusion ([2]; accelerated conditions): excellent stability
- change of (S)-form to (R)-form ([2]; accelerated stability test section): not changed to (R)-form
- white crystalline powder form over storage ([2]; six months, accelerated conditions): uniformly maintained
- Classification (particle size) ([3]; USP <811> powder fineness): Very fine
- d10 ([3]; powder dispersed at 2 bar): 15.2 μm
- d50 ([3]; powder dispersed at 2 bar): 104 μm
- d90 ([3]; powder dispersed at 2 bar): 265 μm
- d50 [3, 5]: 104.0 μm
- d90 [3, 5]: 265.0 μm
- Assay by potentiometry (on dried basis) ([4]; 1-month): 99.9 % w/w
- Chiral purity by HPLC S-Isomer Content ([4]; 1-month): 100.0 % Area normalization
- Identification by IR ([4]; 1-month): Complies
- Loss on drying at 105° C. for 3 hours ([4]; 1-month): 0.04 % w/w
- Related substance by HPLC Single maximum unknown impurity ([4]; 1-month): 0.01 % w/w
- Related substance by HPLC Total impurity ([4]; 1-month): 0.01 % w/w
- Assay by potentiometry (on dried basis) ([4]; 2-month): 100.1 % w/w
- Chiral purity by HPLC S-Isomer Content ([4]; 2-month): 100.0 % Area normalization
- Identification by IR ([4]; 2-month): Complies
- Loss on drying at 105° C. for 3 hours ([4]; 2-month): 0.07 % w/w
- Related substance by HPLC Single maximum unknown impurity ([4]; 2-month): 0.01 % w/w
- Related substance by HPLC Total impurity ([4]; 2-month): 0.01 % w/w
- Assay by potentiometry (on dried basis) ([4]; 3-month): 100.2 % w/w
- Chiral purity by HPLC S-Isomer Content ([4]; 3-month): 100.0 % Area normalization
- Identification by IR ([4]; 3-month): Complies
- Loss on drying at 105° C. for 3 hours ([4]; 3-month): 0.14 % w/w
- Assay by potentiometry (on dried basis) ([4]; 6-month): 100.2 % w/w
- Chiral purity by HPLC S-Isomer Content ([4]; 6-month): 100.0 % Area normalization
- Identification by IR ([4]; 6-month): Complies
- Loss on drying at 105° C. for 3 hours ([4]; 6-month): 0.18 % w/w
- Assay by potentiometry (on dried basis) ([4]; Initial): 100.1 % w/w
- Chiral purity by HPLC S-Isomer Content ([4]; Initial): 100.0 % Area normalization
- Identification by IR ([4]; Initial): Complies
- Loss on drying at 105° C. for 3 hours ([4]; Initial): 0.11 % w/w
- Related substance by HPLC Single maximum unknown impurity ([4]; Initial): 0.01 % w/w
- Related substance by HPLC Total impurity ([4]; Initial): 0.01 % w/w
- change of (S)-form to (R)-form ([4]; long-term storage conditions): not changed to (R)-form
- stability conclusion ([4]; long-term storage conditions): excellent stability
- white crystalline powder form over storage ([4]; six months, long-term storage conditions): uniformly maintained
